{"source": "patent US4774381A", "about": "“Herbicide resistant tobacco” (E. I. Du Pont de Nemours and Company, priority 1985, dated 1988)", "key": {"[1]": {"test_system": "yeast Saccharomyces cerevisiae", "details": "medium supplementation; cited from earlier work"}, "[2]": {"test_system": "acetolactate synthase (ALS), Isolate 30 (S4/S4) extract", "test": "ALS activity assay in cell extracts", "format": "biochemical, Nicotiana tabacum", "description": "(§1) Cell suspension cultures of normal (H1) and homozygous mutant (Isolate 16) cell lines were washed in C1 liquid medium. After washing, cells were extracted in a 100 mM potassium phosphate buffer (pH 7.5) containing 0.5 mM MgCl2, 1 mM sodium pyruvate, 0.5 mM thiamine pyrophosphate, 10 micromolar flavine-adenine dinucleotide (FAD) and 10 percent (by volume) glycerol. Polyclar AT (BDH Chemicals Ltd) was added to a final concentration of 250 mg per gram fresh weight of tissue. After centrifugation at 27,000xg for 15 minutes at 4°, an equal volume of a saturated solution of amminium sulfate was added to the supernatant fraction. The resultant precipitate (representing a 0 to 50 percent ammonium sulfate fraction) was redissolved in 100 mM potassium phosphate buffer (pH 7.5) containing 0.5 mM MgCl2, 1 mM sodium pyruvate, and salts were removed by passage through a Sephadex G-25 (Pharmacia PD-10) column.\n(§2) ALS activity was assayed in a total volume of 500 microliters containing 100 microliters of the column eluate, 65 mM potassium phosphate buffer (pH 7.5) containing 10 mM MgCl2, 40 mM sodium pyruvate, 250 micromolar thiamine pyrophosphate, 23 micromolar FAD, and 1, 5, 10, 50, 100, 500 or 1000 ppb chlorsulfuron or sulfometuron-methyl. After incubation at 30° for 90 minutes, 250 microliters of 6N H2 SO4 was added to each assay tube, and the tubes were incubated at 55° for 10 minutes to terminate the enzymatic reaction and achieve complete conversion of acetolactate to acetoin. Acetoin content was then measured by a modification of the procedure described by Westerfield, J. Biol. Chem. 161:495 (1945). To each tube was added sequentially 100 microliters 50 percent NaOH, 150 microliters 0.5 percent creatine, and 150 microliters 5 percent alpha-napthol (in 2.5N NaOH). Color development was accelerated by incubation at 55° for 10 minutes. Tubes were then centrifuged, and the optical density was read at 530 nm. Background optical densities, which were subtracted from the optical density values of the reactions, were determined for each extract from parallel assays to which the enzyme extract was added after the addition of 6N H2 SO4. Protein concentrations were measured with Bio-Rad Protein Assay reagent with bovine serum albumin as a standard. Data points and specific activities, which are set forth below and in FIG. 2, represent the average values of at least three independent determinations. ALS activities are presented in FIG. 2 as percent activity in the absence of herbicide.\n(§3) Responses to chlorsulfuron were determined for ALS activities in extracts of cells suspension cultures derived from nine individuals that differed with resepct to the S4 mutation. As described above, these individuals were produced by self-fertilization of an S4/+ heterozygote, and their genotypes were established by means of progeny analysis. Callus and plant phenotypes were determined by growth responses of cell cultures and seedlings, respectively, on herbicide-supplemented medium. […] In contrast, all individuals homozygous for the S4 mutation contained a highly resistant form of the enzyme. […] The correlation between both callus and plant phenotype and the response of ALS activity in vitro to the herbicide is both absolute and quantitative."}, "[3]": {"test_system": "acetolactate synthase (ALS), Isolate 9 (S4/+) extract", "test": "ALS activity assay in cell extracts", "format": "biochemical, Nicotiana tabacum", "description": "as §1, §2, §3"}, "[4]": {"test_system": "acetolactate synthase (ALS), Isolate 24 (S4/+) extract", "test": "ALS activity assay in cell extracts", "format": "biochemical, Nicotiana tabacum", "description": "as §1, §2, §3"}, "[5]": {"test_system": "acetolactate synthase (ALS), Isolate 1 (+/+) extract", "test": "ALS activity assay in cell extracts", "format": "biochemical, Nicotiana tabacum", "description": "as §1, §2, §3"}, "[6]": {"test_system": "acetolactate synthase (ALS), Isolate 27 (S4/S4) extract", "test": "ALS activity assay in cell extracts", "format": "biochemical, Nicotiana tabacum", "description": "as §1, §2, §3"}, "[7]": {"test_system": "homozygous mutant (S4) plants", "test": "Foliar spray whole plant test", "format": "in vivo, Nicotiana tabacum", "description": "(§4) Further studies of the effect of the S4 mutation on whole plant response to chlorsulfuron were conducted with plants of the parental variety and progeny of homozygous mutant and homozygous normal isolates (Nos. 16 and 1, respectively) of the previously described backcross program. Accordingly, plants of the latter two types were derived, but separated by four generations, from the initial S4 mutant plant regenerated from callus culture.\n(§5) Plants at the 4-5 leaf stage were treated with foliar sprays of an aqueous solution containing 10% (v/v) acetone, 0.2% polyoxyethylene sorbitan monolaurate (Tween 20 ), and 1,3, 10, 30 or 100 ppm chlorsulfuron. Each plant received 5 mL of a spray solution. Two weeks after treatment, plants were evaluated for phytotoxicity and shoot heights were measured. […] At this lowest level of application, apical buds and youngest leaves of these sensitive plants were chlorotic. […] These symptoms were more pronounced with increasing chlorsulfuron concentrations. […] In contrast, homozygous mutant plants were unaffected by treatment with chlorsulfuron, even at the highest test concentration of 100 ppm."}, "[8]": {"test_system": "parental and homozygous normal plants", "test": "Foliar spray whole plant test", "format": "in vivo, Nicotiana tabacum", "details": "5 mL spray", "description": "as §4, §5"}}, "data": [{"compound": "COC(=O)c1ccccc1S(=O)(=O)NC(=O)Nc1nc(C)cc(C)n1", "note": "[Sulfometuron-methyl, sulfometuron-methyl]", "values": [{"measurement": "reversal of growth inhibition", "setting": "[1]", "value": "restored by addition of isoleucine, leucine, and valine"}]}, {"compound": "COc1nc(C)nc(NC(=O)NS(=O)(=O)c2ccccc2Cl)n1", "note": "[Chlorsulfuron, chlorsulfuron]", "values": [{"measurement": "Uninhibited activity (%) in the Presence of Chlorsulfuron", "setting": "[2]; 10 ppb", "value": 89, "unit": "%"}, {"measurement": "Uninhibited activity (%) in the Presence of Chlorsulfuron", "setting": "[2]; 30 ppb", "value": 83, "unit": "%"}, {"measurement": "Uninhibited activity (%) in the Presence of Chlorsulfuron", "setting": "[2]; 100 ppb", "value": 81, "unit": "%"}, {"measurement": "Uninhibited activity (%) in the Presence of Chlorsulfuron", "setting": "[3]; 10 ppb", "value": 59, "unit": "%"}, {"measurement": "Uninhibited activity (%) in the Presence of Chlorsulfuron", "setting": "[3]; 30 ppb", "value": 50, "unit": "%"}, {"measurement": "Uninhibited activity (%) in the Presence of Chlorsulfuron", "setting": "[3]; 100 ppb", "value": 42, "unit": "%"}, {"measurement": "Uninhibited activity (%) in the Presence of Chlorsulfuron", "setting": "[4]; 10 ppb", "value": 60, "unit": "%"}, {"measurement": "Uninhibited activity (%) in the Presence of Chlorsulfuron", "setting": "[4]; 30 ppb", "value": 47, "unit": "%"}, {"measurement": "Uninhibited activity (%) in the Presence of Chlorsulfuron", "setting": "[4]; 100 ppb", "value": 41, "unit": "%"}, {"measurement": "Uninhibited activity (%) in the Presence of Chlorsulfuron", "setting": "[5]; 10 ppb", "value": 42, "unit": "%"}, {"measurement": "Uninhibited activity (%) in the Presence of Chlorsulfuron", "setting": "[5]; 30 ppb", "value": 29, "unit": "%"}, {"measurement": "Uninhibited activity (%) in the Presence of Chlorsulfuron", "setting": "[5]; 100 ppb", "value": 23, "unit": "%"}, {"measurement": "Uninhibited activity (%) in the Presence of Chlorsulfuron", "setting": "[6]; 10 ppb", "value": 88, "unit": "%"}, {"measurement": "Uninhibited activity (%) in the Presence of Chlorsulfuron", "setting": "[6]; 30 ppb", "value": 82, "unit": "%"}, {"measurement": "Uninhibited activity (%) in the Presence of Chlorsulfuron", "setting": "[6]; 100 ppb", "value": 79, "unit": "%"}, {"measurement": "increase of resistance of plants by S4 mutation", "setting": "[7]; homozygous state", "value": "at least 100 fold"}, {"measurement": "phytotoxicity two weeks after foliar spray", "setting": "[7]; up to highest test concentration of 100 ppm chlorsulfuron", "value": "unaffected"}, {"measurement": "phytotoxicity two weeks after foliar spray", "setting": "[8]; 1 ppm chlorsulfuron, 4-5 leaf stage", "value": "developed symptoms of phytotoxicity"}, {"measurement": "phytotoxicity two weeks after foliar spray", "setting": "[8]; 3 ppm chlorsulfuron", "value": "chlorosis was more severe and growth retardation readily apparent"}, {"measurement": "phytotoxicity two weeks after foliar spray", "setting": "[8]; 100 ppm chlorsulfuron", "value": "extreme growth inhibition, chlorosis, and necrosis"}]}]}
